This note sets out measurements from publication PMC7531004, “Discovery of gramicidin A analogues with altered activities by multidimensional screening of a one-bead-one-compound library” (Nature Communications, 2020).

Where a SMILES comes first, the peptide text is derived from it. [ ]: non-standard residue; d: D form. The star is where a group is joined. NHCH2CH2OH = OCCN*; For = O=C*

The conditions of data set [1]: cell viability/%. In short, it runs like this: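 First, library peptide stocks are diluted 250-fold in RPMI1640 with 10% heat-inactivated FBS. Next, they are mixed with P388 cells to give 1 × 10^4 cells/mL and incubated 92 h at 37 °C, 5% CO2. Finally, viability (%) is scored by WST-1 absorbance at 415 nm.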
A short description of data set [2]: H+/Na+ transport assay of bead-derived peptides (one-point).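 Note: relative to parent gramicidin A activity set to 1.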 Format: biochemical. Also on record: key: relative activity; mean of two control wells = 1.00. To be noted: bead-derived peptide solution, EYPC/EYPG LUVs. In short, it runs like this: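 Pyranine (1.0 mM)-loaded LUVs containing egg yolk phosphatidylglycerol were prepared by film hydration, sonication and extrusion, then mixed with diluted bead-derived peptide in 96-well format and vortexed 30 min at room temperature. Fluorescence was normalized between untreated LUVs (0%) and Triton X-100 lysis (100%).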

For data set [3], the system named is Streptococcus pyogenes SSI-9. The data set can be described thus: Antibacterial activity assay of bead-derived peptides (three concentrations). Format: cell-based. Also on record: key: +++: inhibition by the 640-fold diluted peptide solution; ++: inhibition by the 160-fold diluted solution; +: inhibition by the 40-fold diluted solution; -: no inhibition. To be noted: S. pyogenes, bead-derived peptide solution, three concentrations. In short, it runs like this: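 Three stock dilutions per peptide (none, 4-fold, 16-fold in DMSO) are screened in 96-well format. The medium is blood-supplemented cation-adjusted MHB, inoculated with 2 × 10^5 CFU S. pyogenes SSI-9. Growth is read as cell precipitation at 18 h, 37 °C.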

Take `CC(C)C[C@@H](NC(=O)[C@H](Cc1c[nH]c2ccccc12)NC(=O)[C@@H](CC(C)C)NC(=O)[C@H](Cc1c[nH]c2ccccc12)NC(=O)[C@H](NC(=O)[C@H](Cc1c[nH]c2ccccc12)NC(=O)[C@H](NC(=O)[C@@H](NC(=O)[C@H](NC(=O)[C@H](C)NC(=O)[C@H](NC(=O)[C@H](C)NC(=O)CNC(=O)[C@@H](NC=O)C(C)C)C(C)C)C(C)C)C(C)C)C(C)C)C(C)C)C(=O)N[C@@H](Cc1c[nH]c2ccccc12)C(=O)NCCO` [compound 1119] (For-VGA[dV]A[dV]V[dV]W[dV]W[dL]W[dL]W-NHCH2CH2OH): the viability (commonly a read-out of living cells in per cent, often relative to untreated cells) in data set [1] came out at 100%. In data set [2], the “H+/Na+ transport activity normalized against the value of 1 (1.00)” value (“H+/Na+ transport activity normalized” for short) is recorded as 1.10. In addition, the antibacterial activity entry in data set [3] is “-”.
In the same order, the values of `CNC(=O)C[C@@H](NC(=O)[C@H](Cc1c[nH]c2ccccc12)NC(=O)[C@@H](CC(C)C)NC(=O)[C@@H](NC(=O)[C@@H](CC(C)C)NC(=O)[C@H](C)NC(=O)[C@H](NC(=O)[C@H](C)NC(=O)CNC(=O)[C@@H](NC=O)C(C)C)C(C)C)C(C)C)C(=O)N[C@@H](Cc1c[nH]c2ccccc12)C(=O)N[C@@H](C(=O)N[C@@H](Cc1c[nH]c2ccccc12)C(=O)N[C@@H](C(=O)N[C@@H](Cc1c[nH]c2ccccc12)C(=O)NCCO)C(C)C)C(C)C` [compound 1152] (For-VGA[dV]A[dL]V[dL]W[dD](NHMe)W[dV]W[dV]W-NHCH2CH2OH) are 100%, 1.05 and “-”.
Turning to `CC(C)C[C@@H](NC(=O)[C@@H](NC(=O)[C@H](NC(=O)[C@H](C)NC(=O)[C@H](NC(=O)[C@H](C)NC(=O)CNC(=O)[C@@H](NC=O)C(C)C)[C@H](C)O)C(C)C)C(C)C)C(=O)N[C@@H](Cc1c[nH]c2ccccc12)C(=O)N[C@@H](C(=O)N[C@@H](Cc1c[nH]c2ccccc12)C(=O)N[C@@H](C(=O)N[C@@H](Cc1c[nH]c2ccccc12)C(=O)N[C@@H](C(=O)N[C@@H](Cc1c[nH]c2ccccc12)C(=O)NCCO)C(C)C)C(C)C)[C@H](C)O` [compound 1156] (For-VGA[dT]A[dV]V[dL]W[dT]W[dV]W[dV]W-NHCH2CH2OH), in data set [1], the viability turned out to be 85.9%. In data set [2], the “H+/Na+ transport activity normalized” value is 1.03. Besides, the antibacterial activity result in data set [3] is listed as “-”.
With `CC(C)C[C@@H](NC(=O)[C@H](C)NC(=O)CNC(=O)[C@@H](NC=O)C(C)C)C(=O)N[C@@H](C)C(=O)N[C@H](CC(C)C)C(=O)N[C@H](C(=O)N[C@@H](C(=O)N[C@@H](Cc1c[nH]c2ccccc12)C(=O)N[C@H](CC(C)C)C(=O)N[C@@H](Cc1c[nH]c2ccccc12)C(=O)N[C@@H](C(=O)N[C@@H](Cc1c[nH]c2ccccc12)C(=O)N[C@H](CC(C)C)C(=O)N[C@@H](Cc1c[nH]c2ccccc12)C(=O)NCCO)[C@H](C)O)[C@H](C)O)C(C)C` [compound 1176] (For-VGA[dL]A[dL]V[dT]W[dL]W[dT]W[dL]W-NHCH2CH2OH), the viability in data set [1] was determined as 100%. Besides, the “H+/Na+ transport activity normalized” value in data set [2] is listed as 1.01. For the same compound, the antibacterial activity entry in data set [3] is recorded as “-”.
With `CNC(=O)C[C@@H](NC(=O)[C@@H](NC(=O)[C@@H](CC(C)C)NC(=O)[C@H](C)NC(=O)[C@H](NC(=O)[C@H](C)NC(=O)CNC(=O)[C@@H](NC=O)C(C)C)C(C)C)C(C)C)C(=O)N[C@@H](Cc1c[nH]c2ccccc12)C(=O)N[C@H](CC(C)C)C(=O)N[C@@H](Cc1c[nH]c2ccccc12)C(=O)N[C@H](CC(C)C)C(=O)N[C@@H](Cc1c[nH]c2ccccc12)C(=O)N[C@H](CC(C)C)C(=O)N[C@@H](Cc1c[nH]c2ccccc12)C(=O)NCCO` [compound 1242] (For-VGA[dV]A[dL]V[dD](NHMe)W[dL]W[dL]W[dL]W-NHCH2CH2OH), in data set [1], the viability amounted to 65.8%. The “H+/Na+ transport activity normalized” value in data set [2] is on record as 1.13. In addition, the antibacterial activity result in data set [3] was “-”.
In the same order, the values of `CC(C)C[C@@H](NC(=O)[C@H](C)NC(=O)CNC(=O)[C@@H](NC=O)C(C)C)C(=O)N[C@@H](C)C(=O)N[C@@H](C(=O)N[C@H](C(=O)N[C@H](CC(C)C)C(=O)N[C@@H](Cc1c[nH]c2ccccc12)C(=O)N[C@@H](C(=O)N[C@@H](Cc1c[nH]c2ccccc12)C(=O)N[C@H](CC(C)C)C(=O)N[C@@H](Cc1c[nH]c2ccccc12)C(=O)N[C@@H](C(=O)N[C@@H](Cc1c[nH]c2ccccc12)C(=O)NCCO)C(C)C)[C@H](C)O)C(C)C)C(C)C` [compound 1253] (For-VGA[dL]A[dV]V[dL]W[dT]W[dL]W[dV]W-NHCH2CH2OH) are 58.1%, 1.03 and “-”.
In the same order, the values of `CC(C)C[C@@H](NC(=O)[C@H](C)NC(=O)[C@H](NC(=O)[C@H](C)NC(=O)CNC(=O)[C@@H](NC=O)C(C)C)C(C)C)C(=O)N[C@H](C(=O)N[C@@H](C(=O)N[C@@H](Cc1c[nH]c2ccccc12)C(=O)N[C@@H](C(=O)N[C@@H](Cc1c[nH]c2ccccc12)C(=O)N[C@H](CC(C)C)C(=O)N[C@@H](Cc1c[nH]c2ccccc12)C(=O)N[C@H](CC(C)C)C(=O)N[C@@H](Cc1c[nH]c2ccccc12)C(=O)NCCO)C(C)C)C(C)C)C(C)C` [compound 1406] (For-VGA[dV]A[dL]V[dV]W[dV]W[dL]W[dL]W-NHCH2CH2OH) are 91.1%, 1.04 and “+”.
In the same order, the values of `CNC(=O)C[C@@H](NC(=O)[C@H](C)NC(=O)[C@H](NC(=O)[C@H](C)NC(=O)CNC(=O)[C@@H](NC=O)C(C)C)C(C)C)C(=O)N[C@H](C(=O)N[C@H](CC(C)C)C(=O)N[C@@H](Cc1c[nH]c2ccccc12)C(=O)N[C@H](CC(C)C)C(=O)N[C@@H](Cc1c[nH]c2ccccc12)C(=O)N[C@@H](C(=O)N[C@@H](Cc1c[nH]c2ccccc12)C(=O)N[C@H](CC(C)C)C(=O)N[C@@H](Cc1c[nH]c2ccccc12)C(=O)NCCO)C(C)C)C(C)C` [compound 1489] (For-VGA[dV]A[dD](NHMe)V[dL]W[dL]W[dV]W[dL]W-NHCH2CH2OH) are 100%, 1.03 and “-”.
On to `CC(C)C[C@@H](NC(=O)[C@H](Cc1c[nH]c2ccccc12)NC(=O)[C@H](NC(=O)[C@H](Cc1c[nH]c2ccccc12)NC(=O)[C@@H](CC(C)C)NC(=O)[C@H](Cc1c[nH]c2ccccc12)NC(=O)[C@@H](CC(C)C)NC(=O)[C@@H](NC(=O)[C@H](NC(=O)[C@H](C)NC(=O)[C@H](NC(=O)[C@H](C)NC(=O)CNC(=O)[C@@H](NC=O)C(C)C)[C@H](C)O)C(C)C)C(C)C)C(C)C)C(=O)N[C@@H](Cc1c[nH]c2ccccc12)C(=O)NCCO` [compound 1509] (For-VGA[dT]A[dV]V[dL]W[dL]W[dV]W[dL]W-NHCH2CH2OH), for which, in data set [1], the viability came out at 100%. Also, the “H+/Na+ transport activity normalized” value in data set [2] turned out to be 1.10. In addition, in data set [3], the antibacterial activity result was “-”.
In data set [1], `CC(C)C[C@@H](NC(=O)[C@H](C)NC(=O)CNC(=O)[C@@H](NC=O)C(C)C)C(=O)N[C@@H](C)C(=O)N[C@@H](C(=O)N[C@H](C(=O)N[C@@H](C(=O)N[C@@H](Cc1c[nH]c2ccccc12)C(=O)N[C@@H](C(=O)N[C@@H](Cc1c[nH]c2ccccc12)C(=O)N[C@@H](C(=O)N[C@@H](Cc1c[nH]c2ccccc12)C(=O)N[C@@H](C(=O)N[C@@H](Cc1c[nH]c2ccccc12)C(=O)NCCO)C(C)C)C(C)C)C(C)C)[C@H](C)O)C(C)C)C(C)C` [compound 1520] (For-VGA[dL]A[dV]V[dT]W[dV]W[dV]W[dV]W-NHCH2CH2OH) had a viability of 100%. Also, in data set [2], the “H+/Na+ transport activity normalized” value is 1.04. Besides, the antibacterial activity result in data set [3] is on record as “-”.
